Experimental data published in PubChem BioAssay AID248 (DTP/NCI, 2004).
Toxic doses and inconclusive results are not listed. Cut-off read from the data, not from the text of the source: active = T/C of 150% or more; inactive = T/C below 125%.

Tested on: L1210 leukemia ip in BDF1 mice, survival T/C
Test: NCI In Vivo Anticancer Drug Screen. Data for tumor model L1210 Leukemia (intraperitoneal) in B6D2F1 (BDF1) mice
Conditions: endpoint: mean survival time, higher = longer survival
Summary of the method: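 In this screen, tumor-bearing mice given compound are compared to those given vehicle, and their survival values are reported as a treated-to-control quotient.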

[1] = dose: 100.0 mg/kg/injection, schedule: Q01DX009 (ip), vehicle: Klucel (hydroxypropylcellulose) (HPC)
[2] = dose: 100.0 mg/kg/injection, schedule: Q04DX003 (ip), vehicle: Klucel (hydroxypropylcellulose) (HPC)
[3] = dose: 200.0 mg/kg/injection, schedule: Q01DX009 (ip), vehicle: Klucel (hydroxypropylcellulose) (HPC)
[4] = dose: 12.5 mg/kg/injection, schedule: Q04DX003 (ip), vehicle: saline
[5] = dose: 25.0 mg/kg/injection, schedule: Q04DX003 (ip), vehicle: saline
[6] = dose: 25.0 mg/kg/injection, schedule: Q01DX009 (ip), vehicle: saline
[7] = dose: 100.0 mg/kg/injection, schedule: Q01DX001 (ip), vehicle: saline
[8] = dose: 200.0 mg/kg/injection, schedule: Q01DX001 (ip), vehicle: saline
[9] = dose: 400.0 mg/kg/injection, schedule: Q01DX001 (ip), vehicle: saline

Measured: T/C

O=[N+]([O-])c1cc(Cl)c(O)c(Cl)c1Cl
inactive: dose: 25.0 mg/kg/injection, schedule: Q01DX009 (ip), vehicle: acetone 97 % of control | dose: 50.0 mg/kg/injection, schedule: Q01DX009 (ip), vehicle: acetone 97 % of control | dose: 50.0 mg/kg/injection, schedule: Q04DX003 (ip), vehicle: acetone 95 % of control | dose: 100.0 mg/kg/injection, schedule: Q01DX001 (ip), vehicle: acetone 102 % of control | dose: 100.0 mg/kg/injection, schedule: Q01DX009 (ip), vehicle: acetone 88 % of control | dose: 100.0 mg/kg/injection, schedule: Q04DX003 (ip), vehicle: acetone 92 % of control | dose: 150.0 mg/kg/injection, schedule: Q01DX009 (ip), vehicle: saline 90 % of control | dose: 200.0 mg/kg/injection, schedule: Q01DX001 (ip), vehicle: acetone 100 % of control | dose: 225.0 mg/kg/injection, schedule: Q01DX009 (ip), vehicle: saline 87 % of control

CC(=O)Oc1ccc2c(c1N=NN(C)C)CCC1C2CCC2(C)C(=O)CCC12 (stereo unspecified)
inactive: dose: 100.0 mg/kg/injection, schedule: Q01DX001 (ip), vehicle: Klucel (hydroxypropylcellulose) (HPC) 98 % of control | dose: 200.0 mg/kg/injection, schedule: Q01DX001 (ip), vehicle: Klucel (hydroxypropylcellulose) (HPC) 104 % of control

CCOc1ccc(NC(=O)Nc2cccc3ccccc23)cc1
inactive: [1] 98 % of control | [2] 86 % of control | [3] 94 % of control | dose: 400.0 mg/kg/injection, schedule: Q01DX009 (ip), vehicle: Klucel (hydroxypropylcellulose) (HPC) 86 % of control | dose: 400.0 mg/kg/injection, schedule: Q04DX003 (ip), vehicle: Klucel (hydroxypropylcellulose) (HPC) 92 % of control

Cc1ccc(C)c(NC(=O)N(C2CCCCC2)C2CCCCC2)c1
inactive: dose: 100.0 mg/kg/injection, schedule: Q01DX009 (ip), vehicle: saline with Tween-80 112 % of control | dose: 100.0 mg/kg/injection, schedule: Q04DX003 (ip), vehicle: saline with Tween-80 100 % of control | dose: 200.0 mg/kg/injection, schedule: Q01DX009 (ip), vehicle: saline with Tween-80 101 % of control | dose: 200.0 mg/kg/injection, schedule: Q04DX003 (ip), vehicle: saline with Tween-80 94 % of control | dose: 400.0 mg/kg/injection, schedule: Q01DX009 (ip), vehicle: saline with Tween-80 107 % of control | dose: 400.0 mg/kg/injection, schedule: Q04DX003 (ip), vehicle: saline with Tween-80 97 % of control

C[N+](C)(C)c1ccc(N2C(=O)C3C4c5ccccc5C(C3C2=O)[n+]2ccccc24)cc1 (stereo unspecified)
inactive: dose: 1.56 mg/kg/injection, schedule: Q01DX009 (ip), vehicle: Klucel (hydroxypropylcellulose) (HPC) 103 % of control | dose: 3.12 mg/kg/injection, schedule: Q01DX009 (ip), vehicle: Klucel (hydroxypropylcellulose) (HPC) 97 % of control | dose: 6.25 mg/kg/injection, schedule: Q01DX009 (ip), vehicle: Klucel (hydroxypropylcellulose) (HPC) 100 % of control | [4] 101 % of control | [5] 94 % of control

CCOC(=O)C1(C(=O)OCC)CCC2Nc3ccccc3CC(=O)N21 (stereo unspecified)
inactive: dose: 25.0 mg/kg/injection, schedule: Q04DX003 (ip), vehicle: Klucel (hydroxypropylcellulose) (HPC) 101 % of control | dose: 50.0 mg/kg/injection, schedule: Q04DX003 (ip), vehicle: Klucel (hydroxypropylcellulose) (HPC) 94 % of control | [2] 100 % of control

COc1cccc2c1C1c3ccccc3C(O)CC1CC2O (stereo unspecified)
inactive: dose: 37.5 mg/kg/injection, schedule: Q01DX001 (ip), vehicle: Klucel (hydroxypropylcellulose) (HPC) 89 % of control | dose: 75.0 mg/kg/injection, schedule: Q01DX001 (ip), vehicle: Klucel (hydroxypropylcellulose) (HPC) 104 % of control | dose: 150.0 mg/kg/injection, schedule: Q01DX001 (ip), vehicle: Klucel (hydroxypropylcellulose) (HPC) 91 % of control

CCC(C)[Se][Se]C(C)CC (stereo unspecified)
inactive: dose: 6.25 mg/kg/injection, schedule: Q01DX009 (ip), vehicle: saline 94 % of control | dose: 6.25 mg/kg/injection, schedule: Q04DX003 (ip), vehicle: saline 97 % of control | dose: 12.5 mg/kg/injection, schedule: Q01DX009 (ip), vehicle: saline 98 % of control | [4] 103 % of control | [6] 91 % of control | [5] 103 % of control | dose: 100.0 mg/kg/injection, schedule: Q04DX003 (ip), vehicle: saline 89 % of control

O=C(Nc1cccc2ccccc12)c1ccccc1O
inactive: dose: 50.0 mg/kg/injection, schedule: Q01DX001 (ip), vehicle: carboxymethylcellulose (CMC) 113 % of control | dose: 100.0 mg/kg/injection, schedule: Q01DX001 (ip), vehicle: carboxymethylcellulose (CMC) 108 % of control | dose: 200.0 mg/kg/injection, schedule: Q01DX001 (ip), vehicle: carboxymethylcellulose (CMC) 96 % of control | dose: 400.0 mg/kg/injection, schedule: Q01DX001 (ip), vehicle: carboxymethylcellulose (CMC) 116 % of control

COc1ccc2[nH]ccc2c1
inactive: dose: 100.0 mg/kg/injection, schedule: Q01DX009 (ip), vehicle: other 90 % of control | dose: 100.0 mg/kg/injection, schedule: Q04DX003 (ip), vehicle: other 92 % of control | dose: 200.0 mg/kg/injection, schedule: Q01DX009 (ip), vehicle: other 104 % of control | dose: 200.0 mg/kg/injection, schedule: Q04DX003 (ip), vehicle: other 105 % of control | dose: 400.0 mg/kg/injection, schedule: Q01DX009 (ip), vehicle: other 88 % of control | dose: 400.0 mg/kg/injection, schedule: Q04DX003 (ip), vehicle: other 94 % of control

NCC(c1ccccc1)c1ccccc1
inactive: dose: 1.25 mg/kg/injection, schedule: Q01DX009 (ip), vehicle: saline 103 % of control | [4] 98 % of control | [6] 98 % of control | [5] 98 % of control | dose: 50.0 mg/kg/injection, schedule: Q01DX009 (ip), vehicle: saline 95 % of control | dose: 50.0 mg/kg/injection, schedule: Q04DX003 (ip), vehicle: saline 102 % of control

CC(C)(C)C(=O)OCn1cnc2c(=N)n(O)cnc21
inactive: dose: 50.0 mg/kg/injection, schedule: Q01DX009 (ip), vehicle: Klucel (hydroxypropylcellulose) (HPC) 103 % of control | [1] 100 % of control | [2] 97 % of control | [3] 101 % of control | dose: 200.0 mg/kg/injection, schedule: Q04DX003 (ip), vehicle: Klucel (hydroxypropylcellulose) (HPC) 108 % of control

CC(=O)OCC1OC(Sc2cc(Cl)ccc2Cl)C(OC(C)=O)C(OC(C)=O)C1OC(C)=O (stereo unspecified)
inactive: [7] 100 % of control | [8] 94 % of control | [9] 100 % of control

O=C(c1cccs1)c1cscc1C(=O)c1cccs1
inactive: dose: 100.0 mg/kg/injection, schedule: Q01DX001 (ip), vehicle: saline with Tween-80 95 % of control | dose: 200.0 mg/kg/injection, schedule: Q01DX001 (ip), vehicle: saline with Tween-80 95 % of control | dose: 400.0 mg/kg/injection, schedule: Q01DX001 (ip), vehicle: saline with Tween-80 92 % of control

CCCCCCCCCC[As](=O)(O)CCCCCCCCCC
inactive: dose: 50.0 mg/kg/injection, schedule: Q01DX001 (ip), vehicle: saline 107 % of control | [7] 103 % of control | [8] 103 % of control | [9] 115 % of control
